Laboratory results from patent US11427567B2, “Imidazolyl pyrimidinylamine compounds as CDK2 inhibitors” (Incyte Corporation, priority 2019, dated 2022).

These compounds were tested against CDK2/Cyclin E1 (Homo sapiens (Human), UniProt P24941) (assay: CDK2/Cyclin E1 HTRF enzyme activity assay (Example A)). Settings: 1 mM ATP.
Format: biochemical
Description: Assays were conducted in white 384-well polystyrene plates in a final reaction volume of 8 μL. […] HTRF signals were read after 1 hour at room temperature on a PHERAstar FS plate reader (BMG Labtech). Data was analyzed with IDBS XLFit and GraphPad Prism 5.0 software using a three or four parameter dose response curve to determine IC50 for each compound.

IC50, ≤ 50 nM:
Cc1nc(-c2nc(NC3CCN(S(C)(=O)=O)CC3)ncc2C(F)(F)F)cn1-c1ccc(N2CCC(N3CCN(C)CC3)CC2)cc1F [Example 415, 4-(1-(2-Fluoro-4-(4-(4-methylpiperazin-1-yl)piperidin-1-yl)phenyl)-2-methyl-1H-imidazol-4-yl)-N-(1-(methylsulfonyl)piperidin-4-yl)-5-(trifluoromethyl)pyrimidin-2-amine]
CS(=O)(=O)N1CCC(Nc2ncc(C(F)(F)F)c(-c3cn(-c4ccc5nccnc5c4C#N)cn3)n2)CC1 [Example 167, 6-(4-(2-((1-(Methylsulfonyl)piperidin-4-yl)amino)-5-(trifluoromethyl)pyrimidin-4-yl)-1H-imidazol-1-yl)quinoxaline-5-carbonitrile]
CS(=O)(=O)N1CCC(Nc2ncc(C(F)(F)F)c(-c3cn(-c4ccc(CN5CC[C@@H](O)C5)cc4C#N)cn3)n2)CC1 [Example 342, (R)-5-((3-Hydroxypyrrolidin-1-yl)methyl)-2-(4-(2-((1-(methylsulfonyl)piperidin-4-yl)amino)-5-(trifluoromethyl)pyrimidin-4-yl)-1H-imidazol-1-yl)benzonitrile]
CS(=O)(=O)N1CCC(Nc2ncc(C(F)(F)F)c(-c3cn(-c4ccc(C#N)nc4C(F)(F)F)cn3)n2)CC1 [Example 99, 5-(4-(2-((1-(Methylsulfonyl)piperidin-4-yl)amino)-5-(trifluoromethyl)pyrimidin-4-yl)-1H-imidazol-1-yl)-6-(trifluoromethyl)picolinonitrile]
CC1CN(Cc2ccc(-n3cnc(-c4nc(NC5CCN(S(C)(=O)=O)CC5)ncc4C(F)(F)F)c3)c(Cl)c2)C1 [Example 177, 4-(1-(2-Chloro-4-((3-methylazetidin-1-yl)methyl)phenyl)-1H-imidazol-4-yl)-N-(1-(methylsulfonyl)piperidin-4-yl)-5-(trifluoromethyl)pyrimidin-2-amine]
Cc1ccc(-n2cnc(-c3nc(NC4CCN(S(=O)(=O)c5cnn(C)c5C)CC4)ncc3C(F)(F)F)c2)c(C#N)n1 [Example 90, 3-(4-(2-((1-((1,5-Dimethyl-1H-pyrazol-4-yl)sulfonyl)piperidin-4-yl)amino)-5-(trifluoromethyl)pyrimidin-4-yl)-1H-imidazol-1-yl)-6-methylpicolinonitrile]
CS(=O)(=O)N1CCC(Nc2ncc(C(F)(F)F)c(-c3cn(-c4ccc(C#N)cc4C#N)cn3)n2)CC1 [Example 59, 4-(4-(2-((1-(Methylsulfonyl)piperidin-4-yl)amino)-5-(trifluoromethyl)pyrimidin-4-yl)-1H-imidazol-1-yl)isophthalonitrile]
Cc1nccc(-n2cnc(-c3nc(N[C@H]4CCN(S(C)(=O)=O)C[C@H]4F)ncc3C(F)(F)F)c2)c1Cl [Example 301, 4-(1-(3-Chloro-2-methylpyridin-4-yl)-1H-imidazol-4-yl)-N-((3R,4S)-3-fluoro-1-(methylsulfonyl)piperidin-4-yl)-5-(trifluoromethyl)pyrimidin-2-amine]
CS(=O)(=O)N1CC[C@@H](Nc2ncc(C(F)(F)F)c(-c3cn(CC(F)F)cn3)n2)[C@H](F)C1 [Example 331, 4-(1-(2,2-Difluoroethyl)-1H-imidazol-4-yl)-N-((3R,4R)-3-fluoro-1-(methylsulfonyl)piperidin-4-yl)-5-(trifluoromethyl)pyrimidin-2-amine]
CS(=O)(=O)N1CCC(Nc2ncc(C(F)(F)F)c(-c3cn(-c4ccc(CNCC5CC5)cc4Cl)cn3)n2)CC1 [Example 191, 4-(1-(2-Chloro-4-(((cyclopropylmethyl)-amino)methyl)phenyl)-1H-imidazol-4-yl)-N-(1-(methylsulfonyl)-piperidin-4-yl)-5-(trifluoromethyl)-pyrimidin-2-amine]
[2H]C([2H])([2H])N(Cc1ccc(-n2cc(-c3nc(NC4CCN(S(C)(=O)=O)CC4)ncc3C(F)(F)F)nc2C)c(F)c1)C([2H])([2H])[2H] [Example 280, 4-(1-(4-((Bis(methyl-d)amino)methyl)-2-fluorophenyl)-2-methyl-1H-imidazol-4-yl)-N-(1-(methylsulfonyl)piperidin-4-yl)-5-(trifluoromethyl)pyrimidin-2-amine]
CN(C)CCOc1ccc(-n2cnc(-c3nc(NC4CCN(S(C)(=O)=O)CC4)ncc3C(F)(F)F)c2)c(C#N)n1 [Example 40, 6-(2-(Dimethylamino)ethoxy)-3-(4-(2-((1-(methylsulfonyl)piperidin-4-yl)amino)-5-(trifluoromethyl)pyrimidin-4-yl)-1H-imidazol-1-yl)picolinonitrile]
CCS(=O)(=O)N1CCC(Nc2ncc(C(F)(F)F)c(-c3cn(-c4ccc(CN5CCC5)cc4Cl)cn3)n2)CC1 [Example 229, 4-(1-(4-(Azetidin-1-ylmethyl)-2-chlorophenyl)-1H-imidazol-4-yl)-N-(1-(ethylsulfonyl)piperidin-4-yl)-5-(trifluoromethyl)pyrimidin-2-amine]
Cc1nc(-c2nc(NC3CCN(S(C)(=O)=O)CC3)ncc2C(F)(F)F)cn1-c1ccccc1F [Example 102, 4-(1-(2-Fluorophenyl)-2-methyl-1H-imidazol-4-yl)-N-(1-(methylsulfonyl)piperidin-4-yl)-5-(trifluoromethyl)pyrimidin-2-amine]
CN(C)Cc1ccc(-n2cnc(-c3nc(NC4CCN(S(C)(=O)=O)CC4)ncc3C(F)(F)F)c2)c(C(F)(F)F)n1 [Example 246, 4-(1-(6-((Dimethylamino)methyl)-2-(trifluoromethyl)pyridin-3-yl)-1H-imidazol-4-yl)-N-(1-(methylsulfonyl)piperidin-4-yl)-5-(trifluoromethyl)pyrimidin-2-amine]
Cc1nccc(-n2cnc(-c3nc(NC4CCN(S(C)(=O)=O)CC4)ncc3C(F)(F)F)c2)c1Cl [Example 296, 4-(1-(3-Chloro-2-methylpyridin-4-yl)-1H-imidazol-4-yl)-N-(1-(methylsulfonyl)piperidin-4-yl)-5-(trifluoromethyl)pyrimidin-2-amine]
CS(=O)(=O)N1CCC(Nc2ncc(C(F)(F)F)c(-c3cn(-c4ccc(C(F)(F)F)nc4C#N)cn3)n2)CC1 [Example 64, 3-(4-(2-((1-(Methylsulfonyl)piperidin-4-yl)amino)-5-(trifluoromethyl)pyrimidin-4-yl)-1H-imidazol-1-yl)-6-(trifluoromethyl)picolinonitrile]
CS(=O)(=O)N1CCC(Nc2ncc(C(F)(F)F)c(-c3cn(-c4c(Cl)cccc4C#N)cn3)n2)CC1 [Example 2, 3-Chloro-2-(4-(2-((1-(methylsulfonyl)piperidin-4-yl)amino)-5-(trifluoromethyl)pyrimidin-4-yl)-1H-imidazol-1-yl)benzonitrile]
Cc1nn(C)cc1-n1cnc(-c2nc(NC3CCN(S(C)(=O)=O)CC3)ncc2C(F)(F)F)c1 [Example 169, 4-(1-(1,3-Dimethyl-1H-pyrazol-4-yl)-1H-imidazol-4-yl)-N-(1-(methylsulfonyl)piperidin-4-yl)-5-(trifluoromethyl)pyrimidin-2-amine]
